Measured values taken from patent US10485787B2, “Oral dosage forms of bendamustine and therapeutic use thereof” (ASTELLAS DEUTSCHLAND GMBH, priority 2010, dated 2019).
Counter-ions that a name gives are not always drawn.

How the values were obtained:
[1] = Phase 1 crossover study, urine pharmacokinetics of bendamustine, M3 and M4 (Example 23); assay type: in vivo, patients; conditions: for CL renal: human; for CL renal / %Aeinf / %Aelast: urine, Bendamustine HCl; for percentage of the dose excreted in urine as the metabolite: oral administration; for percentage of the dose excreted in urine unchanged: oral bendamustine
Procedure: Bendamustine was provided a) orally as capsules, a LFHC formulation (liquid-filled, hard-shell capsule) and b) intravenously as a solution after reconstituting a powder for the preparation of a solution for injection. The LFHC formulation (per capsule) was prepared from 55.1 mg bendamustine hydrochloride, 1.2 mg methylparaben, 0.12 mg polyparaben, 0.12 mg butylated hydroxytoluene, 10.9 mg ethanol and 532.56 mg Cremophor® RH40. The vial with powder for concentrate for solution was the marketed product in Germany (Ribomustine®) which contains per vial 100 mg of bendamustine hydrochloride and mannitol as an excipient. This product was reconstituted with water for injection to a final concentration of 2.5 mg/ml of bendamustine HCl and was further diluted with 0.9% NaCl until about 500 ml before administration to the patient, in accordance with the instructions of the package insert.
After oral and intravenous administration of bendamustine the concentration of bendamustine, as well as that of the active metabolites of bendamustine (M3 and M4), were determined in plasma and urine samples on day 1 and day 8. […] Subsequently the pharmacokinetic parameters of bendamustine and its metabolites were calculated.

[2] = a range of organic solvents; cited from earlier work
[3] = Phase 1 crossover study, plasma pharmacokinetics of bendamustine, M3 and M4 (Example 23)
Procedure: 14 patients who were suffering from multiple myeloma, B-cell type chronic lymphocytic leukemia or advanced indolent non-Hodgkin's lymphoma were enrolled and were treated with bendamustine. […] After signing the informed consent form and following the screening period (days −21 to −2), eligible patients were assigned a patient number which was specific for each study site. Patients were randomized to receive one of the following on day 1 followed by the other on day 8: • a single oral dose of 110.2 mg (2×55.1 mg) bendamustine HCl • a single intravenous dose of 100 mg bendamustine HCl
Bendamustine was provided a) orally as capsules, a LFHC formulation (liquid-filled, hard-shell capsule) and b) intravenously as a solution after reconstituting a powder for the preparation of a solution for injection. The LFHC formulation (per capsule) was prepared from 55.1 mg bendamustine hydrochloride, 1.2 mg methylparaben, 0.12 mg […], 0.12 mg butylated hydroxytoluene, 10.9 mg ethanol and 532.56 mg Cremophor® RH40. The vial with powder for concentrate for solution was the marketed product in Germany (Ribomustine®) which contains per vial 100 mg of bendamustine hydrochloride and mannitol as an excipient. This product was reconstituted with water for injection to a final concentration of 2.5 mg/ml of bendamustine HCl and was further diluted with 0.9% NaCl until about 500 ml before administration to the patient, in accordance with the instructions of the package insert.
Patients were admitted to the study site for 2 periods; days −1 to 2 (period 1) and days 7 to 9 (period 2). A total of 12 patients was to be randomized to receive treatment. Six patients were to receive treatment with a single oral dose of 110.2 mg (2×55.1 mg) bendamustine HCl (day 1) followed by a single intravenous dose of 100 mg bendamustine HCl (day 8) while 6 other patients were to receive treatment in the alternate order. Patients underwent a washout period of at least 7 days between treatments.
After oral and intravenous administration of bendamustine the concentration of bendamustine, as well as that of the active metabolites of bendamustine (M3 and M4), were determined in plasma and urine samples on day 1 and day 8. Patients returned to the study site for an end-of-study visit 7 to 14 days after completion of the second treatment period, or after early discharge/withdrawal. Subsequently the pharmacokinetic parameters of bendamustine and its metabolites were calculated.

[4] = cited from earlier work
[5] = Phase 1 crossover study, safety and tolerability (Example 23); assay type: in vivo, patients; conditions: oral and intravenous single doses
Procedure: Bendamustine was provided a) orally as capsules, a LFHC formulation (liquid-filled, hard-shell capsule) and b) intravenously as a solution after reconstituting a powder for the preparation of a solution for injection. The LFHC formulation (per capsule) was prepared from 55.1 mg bendamustine hydrochloride, 1.2 mg methylparaben, 0.12 mg polyparaben, 0.12 mg butylated hydroxytoluene, 10.9 mg ethanol and 532.56 mg Cremophor® RH40. The vial with powder for concentrate for solution was the marketed product in Germany (Ribomustine®) which contains per vial 100 mg of bendamustine hydrochloride and mannitol as an excipient. […]

[6] = Stability of aqueous solution of bendamustine as a function of pH; assay type: physicochemical

For `Cn1c(CCCC(=O)O)nc2cc(N(CCCl)CCCl)ccc21` [bendamustine hydrochloride], the CL renal ([1]; iv, 100 mg, 100 mg intravenously, Mean) was 6.42 mL/min, the CL renal ([1]; iv, 100 mg, 100 mg intravenously, Median) was 3.37 mL/min and the CL renal ([1]; iv, 100 mg, 100 mg intravenously, Min-max) was 1 to 23.3 mL/min. It also gave a CL renal ([1]; po, 110.2 mg, 110.2 mg orally, Mean) of 13.1 mL/min, a CL renal ([1]; po, 110.2 mg, 110.2 mg orally, Median) of 13 mL/min and a CL renal ([1]; po, 110.2 mg, 110.2 mg orally, Min-max) of 3 to 33.3 mL/min. For the same compound, the “%Aeinf” value ([1]; 100 mg intravenously, Mean) was 2.07%, the “%Aelast” value ([1]; 100 mg intravenously, Mean) was 2.07% and the “%Aeinf” value ([1]; 100 mg intravenously, Median) was 1.22%. For the same compound, the “%Aelast” value ([1]; 100 mg intravenously, Median) was 1.23%, the “%Aeinf” value ([1]; 100 mg intravenously, Min-max) was 0.27-8.8% and the “%Aelast” value ([1]; 100 mg intravenously, Min-max) was 0.27-8.8%. The “%Aeinf” value ([1]; 110.2 mg orally, Mean) was 2.64%, the “%Aelast” value ([1]; 110.2 mg orally, Mean) was 2.66% and the “%Aeinf” value ([1]; 110.2 mg orally, Median) was 2.23%. The “%Aelast” value ([1]; 110.2 mg orally, Median) was 2.23%, the “%Aeinf” value ([1]; 110.2 mg orally, Min-max) was 0.40-5.8% and the “%Aelast” value ([1]; 110.2 mg orally, Min-max) was 0.40-5.9%. For the same compound, the “solubility in organic solvents” value [2] was “slightly or very slightly soluble”, the AUC(0-inf) ([3]; human, plasma, iv, 100 mg) was 4790 ng·h/mL and the AUC(0-t) ([3]; human, plasma, iv, 100 mg) was 4780 ng·h/mL. The Cmax ([3]; human, plasma, iv, 100 mg) was 5900 ng/mL, the Vd ([3]; human, plasma, iv, 100 mg, Vss, plasma, Bendamustine HCl, 100 mg intravenously, Mean) was 10.3 L and the Vd ([3]; human, plasma, iv, 100 mg, Vz, Bendamustine HCl, 100 mg intravenously, Mean) was 14.7 L. For the same compound, the half-life ([3]; human, plasma, iv, 100 mg, t1/2, plasma, Bendamustine HCl, 100 mg intravenously, Mean) was 30.2 min, the Tmax ([3]; human, plasma, iv, 100 mg, Bendamustine HCl, 100 mg intravenously, Mean) was 31.4 min and the AUC(0-inf) ([3]; human, plasma, po, 110.2 mg) was 3900 ng·h/mL. The AUC(0-t) ([3]; human, plasma, po, 110.2 mg) was 3890 ng·h/mL, the Cmax ([3]; human, plasma, po, 110.2 mg) was 3170 ng/mL and the Vd/F ([3]; human, plasma, po, 110.2 mg) was 20.2 L. For the same compound, the half-life ([3]; human, plasma, po, 110.2 mg, t1/2, plasma, Bendamustine HCl, 110.2 mg orally, Mean) was 27.7 min, the Tmax ([3]; human, plasma, po, 110.2 mg, Bendamustine HCl, 110.2 mg orally, Mean) was 56.8 min and the CL ([3]; plasma, Bendamustine HCl, 100 mg intravenously, Mean) was 21.2 L/h. For the same compound, the “time at which maximal plasma levels were detectable” value ([4]; oral capsules, 250-350 mg, 7 patients (Preiss 1985)) was at most 1 h and the “oral bioavailability, inter-individual range” value ([4]; similar study, Preiss et al. 1989) was 25-121%.
With `O=C(O)CCCc1nc2cc(N(CCCl)CCCl)ccc2[nH]1` [Example M4, N-desmethylbendamustine] the “percentage of the dose excreted in urine as the metabolite” value [1] was 0.1%, the “%Aeinf” value ([1]; 100 mg intravenously, Mean) was 0.081% and the “%Aelast” value ([1]; 100 mg intravenously, Mean) was 0.086%. For the same compound, the “%Aeinf” value ([1]; 100 mg intravenously, Median) was 0.045%, the “%Aelast” value ([1]; 100 mg intravenously, Median) was 0.043% and the “%Aeinf” value ([1]; 100 mg intravenously, Min-max) was 0.0039-0.17%. The “%Aelast” value ([1]; 100 mg intravenously, Min-max) was 0.0028-0.21%, the “%Aeinf” value ([1]; 110.2 mg orally, Mean) was 0.109% and the “%Aelast” value ([1]; 110.2 mg orally, Mean) was 0.113%. The “%Aeinf” value ([1]; 110.2 mg orally, Median) was 0.104%, the “%Aelast” value ([1]; 110.2 mg orally, Median) was 0.104% and the “%Aeinf” value ([1]; 110.2 mg orally, Min-max) was 0.034-0.22%. The “%Aelast” value ([1]; 110.2 mg orally, Min-max) was 0.019-0.21% and the “Mean AUCinf of bendamustine, times higher than for the metabolite” value ([3]; oral administration) was 88 times.
In the case of `Cn1c(CCCC(=O)O)nc2cc(N(CCCl)CCCl)ccc21` [bendamustine, 4-[5-[bis(2-chloroethyl)amino]-1-methylbenzimidazo-2-yl]butanoic acid], the “deaths during the study” value [5] is reported as “No deaths”, the “percentage of the dose excreted in urine unchanged” value [1] is reported as 2.6% and the “percentage of the dose excreted in urine unchanged” value ([1]; listed as Bendamustine) is reported as “Approximately 2.6%”. The clearance ([3]; human, plasma, iv, 100 mg) was 353 mL/min, the Vd ([3]; human, plasma, iv, 100 mg, Mean VSS, intravenous administration) was 10.3 L and the Vd ([3]; human, plasma, iv, 100 mg, Mean VZ, intravenous administration) was 14.7 L. For the same compound, the half-life ([3]; human, plasma, iv, 100 mg, Mean t1/2, intravenous administration) was about 30 min, the half-life ([3]; human, plasma, po, 110.2 mg, Mean t1/2, oral intake) was about 30 min and the Tmax ([3]; human, plasma, po, 110.2 mg, individual values, oral administration) was 15 to 108 min. The Tmax ([3]; human, plasma, po, 110.2 mg, oral administration) was about 57 min, the “pH values at which significant hydrolytic decomposition is observed” value [6] was “higher than 5” and the “oral bioavailability, range” value ([4]; oral capsules, 250-350 mg, patients (Preiss 1985)) was 25-94%.
For `Cn1c(C(O)CCC(=O)O)nc2cc(N(CCCl)CCCl)ccc21` (stereo not drawn) [Example M3, γ-hydroxybendamustine], the “percentage of the dose excreted in urine as the metabolite” value [1] was 0.6%, the “%Aeinf” value ([1]; 100 mg intravenously, Mean) was 0.459% and the “%Aelast” value ([1]; 100 mg intravenously, Mean) was 0.457%. The “%Aeinf” value ([1]; 100 mg intravenously, Median) was 0.354%, the “%Aelast” value ([1]; 100 mg intravenously, Median) was 0.353% and the “%Aeinf” value ([1]; 100 mg intravenously, Min-max) was 0.018-1.6%. For the same compound, the “%Aelast” value ([1]; 100 mg intravenously, Min-max) was 0.018-1.6%, the “%Aeinf” value ([1]; 110.2 mg orally, Mean) was 0.611% and the “%Aelast” value ([1]; 110.2 mg orally, Mean) was 0.61%. For the same compound, the “%Aeinf” value ([1]; 110.2 mg orally, Median) was 0.537%, the “%Aelast” value ([1]; 110.2 mg orally, Median) was 0.553% and the “%Aeinf” value ([1]; 110.2 mg orally, Min-max) was 0.13-1.5%. For the same compound, the “%Aelast” value ([1]; 110.2 mg orally, Min-max) was 0.12-1.6% and the “Mean AUCinf of bendamustine, times higher than for the metabolite” value ([3]; oral administration) was 10.6 times.
